Tests used:
[1] = system: indoleamine 2,3-dioxygenase in lamina propria mononuclear cells; assay: IDO expression in cultured colonic lamina propria mononuclear cells incubated with rIFN-γ and/or LPS; format: cell-based, mouse
TNBS colitis = TNBS colitis treated with CTLA-4-Ig with or without 1-mT: weight, survival, clinical characteristics, histological and morphological scoring; format: in vivo, SJL/J mice
[2] = system: indoleamine 2,3-dioxygenase mRNA; assay: Real-time PCR of indoleamine 2,3-dioxygenase mRNA in distal colon; format: in vivo, SJL/J mouse; settings: TNBS colitis, Day 4; PBS 8 fold
Description: (§1) Six week old female SJL/J mice weighing approximately 20 grams, which were maintained at a controlled temperature and light/dark cycle in a pathogen free facility, were anesthetized with an intraperitoneal injection of a 10% Ketamine/Xylazine mixture. […] Mice were sacrificed 4 days after treatment for determination of indoleamine 2,3-dioxygenase protein and mRNA levels.

[3] = system: indoleamine 2,3-dioxygenase protein; assay: Western blotting of indoleamine 2,3-dioxygenase protein in distal colon lysates; format: in vivo, mouse; settings: four days after TNBS, 1-mT versus placebo
Description: as §1
Western blotting (Bio-Rad, Hercules, Calif.) for determining indoleamine 2,3-dioxygenase protein amount was performed on whole colon lysates obtained from the distal colons of both control mice and mice treated with Trinitrobenzene Sulfonic Acid. For Lamina Propria Mononuclear cells, 1×10^6 cells were concentrated and loaded per lane. The samples were denatured and separated on an 8% Sodium Dodecyl Sulphate-Polyacrylamide (SDS-PAGE) gel. After electrophoresis, the separated proteins were then transferred to an Immobilon-P Transfer Membrane (Millipore, Be-dford, Mass.). […] The secondary antibodies were donkey anti-rabbit linked to horseradish peroxidase. After probing for indoleamine 2,3-dioxygenase protein, the membranes were stripped and reprobed for β-actin, which was used in addition to the protein assay to ensure equal protein loading.
Western blotting for indoleamine 2,3-dioxygenase was performed as follows. […] The protein was detected using ECL (Amersham). […]

TNFα mRNA = assay: Real-time PCR of colonic TNFα mRNA; format: in vivo, mouse; settings: TNBS colitis, Day 4; PBS 5 fold
[4] = system: Forkhead box P3 (Foxp3) mRNA; assay: Real-time PCR of colonic Foxp3 mRNA; format: in vivo, mouse; settings: Day 4 of TNBS colitis
[5] = system: lymphocytes in lamina propria lymphoid aggregates; assay: BrdU immunohistochemistry of lymphocyte proliferation in lamina propria lymphoid aggregates; format: in vivo, mice; settings: 4 days and 6 days after TNBS
Description: Lymphocyte proliferation was determined by BrdU labeling of lamina propria lymphoid aggregates of mice treated with Trinitrobenzene Sulfonic Acid enemas plus subcutaneous pellets containing 1-methyl-tryptophan.
BrdU immunohistochemistry was performed to measure cellular proliferation in hypertrophied lymphoid aggregates within the lamina propria of Trinitrobenzene Sulfonic Acid ±1-methyl-tryptophan treated mice. Mice were given rectal Trinitrobenzene Sulfonic Acid and subcutaneous pellets containing 1-methyl-tryptophan or placebo. Groups of mice were sacrificed at 4 days and 6 days after Trinitrobenzene Sulfonic Acid administration. Each mouse received BrdU two hours prior to sacrifice in order to label the S-phase cells. Four micro paraffin sections were prepared from the inflamed colon segments with macroscopically visible hypertrophied colonic patches then labeling was performed as previously described in Riehl, Gasteroenterology, 118: 1106-16, 2000.

[6] = system: Trinitrobenzene Sulfonic Acid colitis; settings: mouse, in vivo
interleukin (IL)-2 mRNA = assay: Real-time PCR of colonic IL-2 mRNA; settings: 4 days after TNBS
IL-1 mRNA = assay: Real-time PCR of colonic IL-1 mRNA; settings: 4 days after TNBS
IL-12 mRNA = assay: Real-time PCR of colonic IL-12 mRNA; settings: 4 days after TNBS, Example 5; placebo 20-fold
IFN-γ mRNA = assay: Real-time PCR of colonic IFN-γ mRNA
TGFβ1 mRNA = assay: Real-time PCR of colonic TGFβ / TGFβ1 mRNA

Compound: rIFN-γ: recombinant interferon-γ (R&D systems)
- indoleamine 2,3-dioxygenase expression after incubation ([1]; B220+ enriched lamina propria mononuclear cell population): did express indoleamine 2,3-dioxygenase after incubation
- indoleamine 2,3-dioxygenase expression after incubation ([1]; B220-/MHCII- lamina propria mononuclear cell population): increased after incubation
- indoleamine 2,3-dioxygenase expression after incubation ([1]; MHCII+/B220- lamina propria mononuclear cell population): further induced
- indoleamine 2,3-dioxygenase protein induction ([1]; colon lamina propria mononuclear cells from STAT1-/- animals): severely blunted indoleamine 2,3-dioxygenase protein induction
- indoleamine 2,3-dioxygenase induction ([1]; colonic lamina propria mononuclear cells from C57BL/6 mice, 24 hours): increased significantly
- concentration required to maximally increase indoleamine 2,3-dioxygenase protein ([1]; lamina propria mononuclear cells): less than 1 ng/ml
- indoleamine 2,3-dioxygenase expression after incubation ([1]; unfractionated lamina propria mononuclear cells of untreated mice, 30 ng/mL, 24 hours): marked increase

Compound: Cn1cc(C[C@H](N)C(=O)O)c2ccccc21 [1-mT, 1-methyltryptophan]
- morphological score (TNBS colitis; Day 4 of TNBS, PBS 2.9): 4.2
- histological score (TNBS colitis; Day 4 of TNBS, PBS 5.4): 6.6
- histology of distal colon (TNBS colitis; TNBS, Day 4): more transmural inflammation, loss of tissue architecture and vasculature, and outright necrosis
- survival rate (TNBS colitis; TNBS, by Day 4, PBS+TNBS 75%): 62.5%
- surviving animals with clinical characteristics of active TNBS colitis (hunched, piloerection), number of animals (TNBS colitis; TNBS, TNBS+PBS 7/9): 4/5
- surviving animals with clinical characteristics of TNBS colitis (TNBS colitis; TNBS, TNBS+PBS 78%): 80%
- mortality (animals dead of animals treated) (TNBS colitis; mouse, in vivo): 3 of 8
- mortality rate (TNBS colitis; mouse, in vivo): 37%
- increase in IDO mRNA expression over controls [2]: 2 fold
- colonic indoleamine 2,3-dioxygenase protein amount [3]: no difference
- TNFα mRNA induction (TNFα mRNA): 16 fold
- induction of Foxp3 mRNA [4]: 11 fold
- S phase lymphocytes in lymphoid aggregates (BrdU) versus placebo [5]: significantly more S phase lymphocytes
- effect on colonic morphology [6]: no effect on colonic morphology
- gross morphology of colon versus placebo [6]: significant gross morphologic differences
- histologic appearance versus placebo [6]: no significant histologic differences
- histologic scores versus placebo [6]: significantly higher
- survival rate [6]: 100%
- survival at 7 days after Trinitrobenzene Sulfonic Acid administration ([6]; sc): 20%
- IL-2 expression versus TNBS and placebo (interleukin (IL)-2 mRNA): significantly higher expression by orders of magnitude
- IL-1 mRNA levels versus TNBS alone (IL-1 mRNA): markedly increased
- IL-12 expression increase over baseline (IL-12 mRNA): 120 fold
- IFN-γ expression increase over baseline (IFN-γ mRNA; 4 days after TNBS, Example 5, placebo 8-fold): 75 fold
- induction of IFN-γ mRNA (IFN-γ mRNA; TNBS colitis, Day 4): 15 fold
- expression of TGFβ (TGFβ1 mRNA; 4 days after TNBS, Example 5, placebo about half of control): 1.5 times control values
- TGFβ1 mRNA induction (TGFβ1 mRNA; Day 4 of TNBS colitis): 0.8 fold
